Experimental findings from publication PMC7197350, “Targeted chemotherapy overcomes drug resistance in melanoma” (Genes & Development, 2020) are described below.

Common to all, as to assay: cells
Holding throughout (design): growth inhibition of A375 parental and resistant melanoma cells, dose-response curves
Holding throughout (settings): Homo sapiens, A-375, 96 h; read-out: Phendione IC50

Assay [1] relates to A375 BRAFi + MEKi resistant.
The subject of another assay is A375 BRAFi resistant. The procedure:
(§1) Figure 2. Phendione is a small molecule inhibitor targeting PP2A. (A) Immunoblots of A375 cell lysates collected after 3 h of drug treatment as indicated; i.e., increasing concentrations of LB100 compared with 0.2 µM phendione (left) and increasing concentrations of phendione compared with 3 µM pyrene (right). DMSO was used as negative control (vehicle). (B) Growth inhibition curves of A375 cells and IC50 values after treatment with phendione or LB100 for 96 h. Data are presented as mean ± SD of three independent experiments. (C) Phosphatase activity assay for PP2A core enzyme (complex of regulatory subunit Aα and catalytic subunit Cα; top), PP1 catalytic subunit Cα (middle) and PP1 catalytic subunit Cβ (bottom) incubated with phendione or pyrene at indicated concentrations. […] IC50s (micromolar) were calculated and is shown as an inset in each graph. […] (G) Quantification of cell apoptosis measured by Annexin V staining flow cytometry. Parental A375 and A375 BRAFi-resistant cells were treated with vehicle or increasing concentration of phendione as indicated in the panels for 24 h before apoptotic cells were measured by flow cytometry. […] Representative images are shown at the left and quantification results are shown at the right. […] (I,J) Quantification of reactive oxygen species (ROS) production measured by flow cytometry in A375 (I) and A375 BRAFi-resistant (J) cells. […]

In another assay the test system is A375. How it is done: as §1

Usually IC50 stands for the point on the concentration scale where inhibition reaches its midpoint. For `O=C1C(=O)c2cccnc2-c2ncccc21` [phendione, 1,10-phenanthroline-5,6-dione], the IC50 in assay [1] came out at 119 nM; in the assay on A375 BRAFi resistant it was 113 nM; in the assay on A375 it was 94 nM.
